Patent US20130059730A1, “INSECTICIDAL COMBINATION” (Kyoyu Agri Company, Ltd., priority 2010, published 2013)

How the values were obtained:
Type in all cases: in vivo
[1] = system: Kanzawa spider mite (Tetranychus kanzawai), resistant strain to hexythiazox, pyridaben and/or fenpyroximate; assay: Example 4: kanzawa spider mite, resistant strain, egg/larva efficacy
Text: (§1) The action to be expected E for a given active ingredient combination obeys the so-called COLBY formula and can be calculated as follows (COLBY, S.R. “Calculating synergistic and antagonistic responses of herbicide combination”. Weeds, Vol. 15, pages 20-22; 1967): • ppm=milligrams of active ingredient (=a.i.) per liter of spray mixture • X=% action by active ingredient A) using p ppm of active ingredient • Y=% action by active ingredient B) using q ppm of active ingredient.
(§2) According to COLBY, the expected (additive) action of active ingredients A)+B) using p+q ppm of active ingredient is
(§3) If the action actually observed (0) is greater than the expected action (E), then the action of the combination is super-additive, i.e. there is a synergistic effect.
(§4) Two-spotted spider mites (sensitive strain to hexythiazox, pyridaben and/or fenpyroximate) were allowed to oviposit on leaves of kidney beans for one day, and the female adults were then removed. The leaves were sprayed by a rotating application tower at 200 ml/m^2 of the predetermined concentration prepared from a product (e.g. the mixture according to the instant invention and the solo active ingredients). Seven days thereafter, the number of unhatched eggs and dead larvae was examined, whereby the live egg rate (%) was determined. The efficacy (observed %) against eggs and larvae is, therefore, calculated based on the following formula: […]
The Example 4 is conducted with use of kanzawa spider mite (resistant strain to hexythiazox, pyridaben and/or fenpyroximate) in a manner similar to that of Example 1.

[2] = system: Two-spotted spider mite (Tetranychus urticae), resistant strain to hexythiazox, pyridaben and/or fenpyroximate; assay: Example 2: two-spotted spider mite, resistant strain, egg/larva efficacy
Text: as §1, §2, §3, §4
The Example 2 is conducted with use of two-spotted spider mite (resistant strain to hexythiazox, pyridaben and/or fenpyroximate) in a manner similar to that of Example 1.

[3] = system: Two-spotted spider mite (Tetranychus urticae), sensitive strain to hexythiazox, pyridaben and/or fenpyroximate; assay: Example 1: two-spotted spider mite egg/larva efficacy on sprayed kidney bean leaves; conditions: 7 days after spray
Text: as §1, §2, §3, §4

[4] = system: Two-spotted spider mite (Tetranychus urticae), sensitive strain to hexythiazox, pyridaben and/or fenpyroximate; assay: Example 5: two-spotted spider mite, sensitive strain, egg/larva efficacy (other ratio)
Text: as §1, §2, §3, §4
The Example 5 is conducted with use of two-spotted spider mite (sensitive strain to hexythiazox, pyridaben and/or fenpyroximate) in a manner similar to that of Example 1.

[5] = system: Kanzawa spider mite (Tetranychus kanzawai), sensitive strain to hexythiazox, pyridaben and/or fenpyroximate; assay: Example 3: kanzawa spider mite, sensitive strain, egg/larva efficacy
Text: as §1, §2, §3, §4
The Example 3 is conducted with use of kanzawa spider mite (sensitive strain to hexythiazox, pyridaben and/or fenpyroximate) in a manner similar to that of Example 1.

Compound	observed (%) efficacy against eggs and larvae ([1]; rate 0.63 ppm) [%]	observed (%) efficacy against eggs and larvae ([1]; rate 1.25 ppm) [%]	observed (%) efficacy against eggs and larvae ([2]; rate 0.63 ppm) [%]	observed (%) efficacy against eggs and larvae ([2]; rate 1.25 ppm) [%]	observed (%) efficacy against eggs and larvae ([3]; rate 0.16 ppm) [%]	observed (%) efficacy against eggs and larvae ([3]; rate 0.31 ppm) [%]	observed (%) efficacy against eggs and larvae ([4]; rate 0.06 ppm) [%]	observed (%) efficacy against eggs and larvae ([4]; rate 0.13 ppm) [%]	observed (%) efficacy against eggs and larvae ([5]; rate 0.16 ppm) [%]	observed (%) efficacy against eggs and larvae ([5]; rate 0.31 ppm) [%]	observed (%) efficacy against eggs and larvae ([1]; rate 0.23 ppm) [%]	observed (%) efficacy against eggs and larvae ([1]; rate 0.45 ppm) [%]	observed (%) efficacy against eggs and larvae ([2]; rate 0.23 ppm) [%]	observed (%) efficacy against eggs and larvae ([2]; rate 0.45 ppm) [%]	observed (%) efficacy against eggs and larvae ([3]; rate 0.06 ppm) [%]	observed (%) efficacy against eggs and larvae ([3]; rate 0.11 ppm) [%]	observed (%) efficacy against eggs and larvae ([4]; rate 0.19 ppm) [%]	observed (%) efficacy against eggs and larvae ([4]; rate 0.38 ppm) [%]	observed (%) efficacy against eggs and larvae ([5]; rate 0.06 ppm) [%]	observed (%) efficacy against eggs and larvae ([5]; rate 0.11 ppm) [%]
CCOc1cc(C(C)(C)C)ccc1C1COC(c2c(F)cccc2F)=N1 (centres unmarked) [Etoxazole, etoxazole]	19.4	70.1	9.3	10.5	40.6	77.7	0.0	15.1	13.6	60.8										
abamectin											6.3	43.6	0.9	6.4	0.0	9.4	8.7	5.0	2.1	1.3
